From patent publication US11427548B2 (Arvinas Operations, Inc., priority 2015, dated 2022)
Where two headings read alike, the source gives them in different places.

Target: T1, Androgen Receptor (Homo sapiens, UniProt P10275)
T1 construct: endogenous in cells; host or cells: VCaP cells
T1 sequence (P10275 1-920): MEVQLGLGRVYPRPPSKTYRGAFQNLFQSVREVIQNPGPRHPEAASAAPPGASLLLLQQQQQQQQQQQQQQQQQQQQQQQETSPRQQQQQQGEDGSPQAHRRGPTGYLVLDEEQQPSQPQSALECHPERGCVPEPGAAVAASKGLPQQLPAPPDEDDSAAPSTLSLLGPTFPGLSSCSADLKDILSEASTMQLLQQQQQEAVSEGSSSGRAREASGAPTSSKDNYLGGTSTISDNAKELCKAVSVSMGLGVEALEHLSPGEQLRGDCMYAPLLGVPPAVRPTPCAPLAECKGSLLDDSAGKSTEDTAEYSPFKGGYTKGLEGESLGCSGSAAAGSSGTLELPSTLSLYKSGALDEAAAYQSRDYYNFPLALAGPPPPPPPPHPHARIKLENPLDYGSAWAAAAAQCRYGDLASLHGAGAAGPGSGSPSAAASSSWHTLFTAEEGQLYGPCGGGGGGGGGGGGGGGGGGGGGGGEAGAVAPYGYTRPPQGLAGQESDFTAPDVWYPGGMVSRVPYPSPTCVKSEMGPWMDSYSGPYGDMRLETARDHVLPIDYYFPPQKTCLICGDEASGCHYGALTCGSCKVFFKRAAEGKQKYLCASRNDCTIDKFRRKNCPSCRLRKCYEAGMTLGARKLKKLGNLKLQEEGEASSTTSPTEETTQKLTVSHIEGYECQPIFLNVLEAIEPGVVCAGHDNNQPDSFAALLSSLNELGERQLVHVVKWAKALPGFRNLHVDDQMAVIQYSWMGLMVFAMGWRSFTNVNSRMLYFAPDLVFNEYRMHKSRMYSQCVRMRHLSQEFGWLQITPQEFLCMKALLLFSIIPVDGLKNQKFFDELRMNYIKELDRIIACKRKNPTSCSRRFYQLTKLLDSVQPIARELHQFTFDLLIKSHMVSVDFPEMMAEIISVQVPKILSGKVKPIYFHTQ
Assay: Androgen Receptor ELISA assay (PathScan AR ELISA) in VCaP cells: AR degradation, Dmax and DC50
Type: cell-based
Method in brief: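 VCaP cells in phenol red-free RPMI with 5% charcoal-stripped FBS were grown at least 3 days, then given compound as 7 half-log doses in 0.1% DMSO with 0.1 nM R1881 for 24 h. Lysates went into a sandwich AR ELISA with TMB read at 450 nm.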

[1] = VCaP cells; Table 36; read-out: VCaP DC50
[2] = VCaP, VCaP cells; Table 36; read-out: VCaP Dmax (%)

SMILES	DC50 [1] [µM]	Dmax [2] [%]	Dmax (VCaP, read-out: VCaP Dmax (%)) [%]	DC50 (read-out: VCaP DC50; VCaP cells; Table 36) [µM]
CC(=O)N[C@H](C(=O)N1C[C@H](O)C[C@H]1C(=O)N[C@@H](C)c1ccc(-c2scnc2C)cc1)[C@@H](C)OCCCN(C)CCc1ccc(C(=O)N[C@H]2C(C)(C)[C@H](Oc3ccc(C#N)c(Cl)c3)C2(C)C)cc1 [Example 734, (2S,4R)-1-(N-acetyl-O-(3-((4-(((1r,3r)-3-(3-chloro-4-cyanophenoxy)-2,2,4,4-tetramethylcyclobutyl)carbamoyl)phenethyl)(meth-yl)amino)propyl)-L-threonyl)-4-hydroxy-N-((S)-1-(4-(4-methylthiazol-5-yl)phenyl)ethyl)pyrrolidine-2-carboxamide]	> 0.501	< 25		
Cc1cc(C(C(=O)N2C[C@H](O)C[C@H]2C(=O)NCc2ccc(Cl)cc2OCCOCCOCCOc2ccc(N3C(=S)N(c4ccc(C#N)c(C(F)(F)F)c4)C(=O)C3(C)C)cc2)C(C)C)on1 (stereo partly drawn) [Example 735, (2S,4R)-N-(4-chloro-2-(2-(2-(2-(4-(3-(4-cyano-3-(trifluoromethyl)phenyl)-5,5-dimethyl-4-oxo-2-thioxoimidazolidin-1-yl)phenoxy)ethoxy)eth-oxy)ethoxy)benzyl)-4-hydroxy-1-(3-methyl-2-(3-methylisoxazol-5-yl)butanoyl)pyrrolidine-2-carboxamide]			< 25	> 0.501
CC(C)(C)[C@H](NC(=O)COCCN1CCN(c2ccc(C(=O)N[C@H]3C(C)(C)[C@H](Oc4ccc(C#N)c(Cl)c4)C3(C)C)cn2)CC1)C(=O)N1C[C@H](O)C[C@H]1C(=O)NCc1ccc(Cl)cc1 [Example 737, N-((1r,3r)-3-(3-chloro-4-cyanophenoxy)-2,2,4,4-tetramethylcyclobutyl)-6-(4-(2-(2-(((S)-1-((2S,4R)-2-((4-chlorobenzyl)carbmaoyl)-4-hydroxypyrrolidin-1-yl)-3,3-dimethyl-1-oxobutan-2-yl)amino)-2-oxoethoxy)ethyl)pipera-zin-1-yl)nicotinamdie]	> 0.501	26 to 50		
CC(C)C[C@@H](C(=O)N[C@@H](C)C(=O)N1C[C@H](O)C[C@H]1C(=O)N[C@@H](C)c1ccc(Cl)cc1)N1CCN(CCCc2ccc(C(=O)N[C@H]3C(C)(C)[C@H](Oc4ccc(C#N)c(Cl)c4)C3(C)C)cc2)CC1 [Example 738, (2S,4R)-1-(((S)-2-(4-(3-(4-(((1r,3r)-3-(3-chloro-4-cyanophenoxy)-2,2,4,4-tetramethylcyclobutyl)carbamoyl)phenyl)propyl)piperazin-1-yl)-4-methylpentanoyl)-L-alanyl)-N-((S)-1-(4-chlorophenyl)ethyl)-4-hydroxypyrrolidine-2-carboxamide]	> 0.501	< 25		
C[C@H](NC(=O)[C@@H]1C[C@@H](O)CN1C(=O)[C@@H](NC(=O)CN1CCN(CCCc2ccc(C(=O)N[C@H]3C(C)(C)[C@H](Oc4ccc(C#N)c(Cl)c4)C3(C)C)cc2)CC1)C(C)(C)C)c1ccc(Cl)cc1 [Example 739, (2S,4R)-1-((S)-2-(2-(4-(3-(4-(((1r,3r)-3-(3-chloro-4-cyanophenoxy)-2,2,4,4-tetramethylcyclobutyl)carbamoyl)phenyl)propyl)piperazin-1-yl)acetamido)-3,3-dimethylbutanoyl)-N-((S)-1-(4-chlorophenyl)ethyl)-4-hydroxypyrrolidine-2-carboxamide]	> 0.501	< 25		
Cc1ncsc1-c1ccc([C@H](C)NC(=O)[C@@H]2C[C@@H](O)CN2C(=O)[C@@H](NC(=O)CN2CCN(CC3(Cc4ccc(C(=O)N[C@H]5C(C)(C)[C@H](Oc6ccc(C#N)c(C(F)(F)F)c6)C5(C)C)cc4)COC3)CC2)C(C)(C)C)cc1 [Example 741, (2S,4R)-1-((S)-2-(2-(4-((3-(4-(((1r,3r)-3-(4-cyano-3-(trifluoromethyl)phenoxy)-2,2,4,4-tetramethylcyclobutyl)carbamoyl)benzyl)oxetan-3-yl)methyl)piperazin-1-yl)acetamido)-3,3-dimethylbutanoyl)-4-hydroxy-N-((S)-1-(4-(4-methylthiazol-5-yl)phenyl)ethyl)pyrrolidine-2-carboxamide]	< 0.05		51 to 70	

Continued, in another order:

DC50 [1] [µM]	Dmax [2] [%]	SMILES	Dmax (VCaP, read-out: VCaP Dmax (%)) [%]	DC50 (read-out: VCaP DC50; VCaP cells; Table 36) [µM]
> 0.501	< 25	Cc1ncsc1-c1ccc(C(C)NC(=O)[C@@H]2C[C@@H](O)CN2C(=O)[C@@H](N)[C@@H](C)OCCCN(C)CCc2ccc(C(=O)N[C@H]3C(C)(C)[C@H](Oc4ccc(C#N)c(Cl)c4)C3(C)C)cc2)cc1 (stereo partly drawn) [Example 730, (2S,4R)-1-(O-(3-((4-(((1r,3r)-3-(3-chloro-4-cyanophenoxy)-2,2,4,4-tetramethylcyclobutyl)carbamoyl)phenethyl)(meth-yl)amino)propyl)-L-threonyl)-4-hydroxy-N-((S)-1-(4-(4-methylthiazol-5-yl)phenyl)ethyl)pyrrolidine-2-carboxamide]		
> 0.501	< 25	CC(C)[C@H](OCCN1CCN(c2ccc(C(=O)N[C@H]3C(C)(C)[C@H](Oc4ccc(C#N)c(Cl)c4)C3(C)C)cn2)CC1)C(=O)N[C@@H](C)C(=O)N1C[C@H](O)C[C@H]1C(=O)NCc1ccc(Cl)cc1 [Example 731, N-((1r,3r)-3-(3-chloro-4-cyanophenoxy)-2,2,4,4-tetramethylcyclobutyl)-6-(4-(2-(((S)-1-(((S)-1-((2S,4R)-2-((4-chlorobenzyl)carbamoyl)-4-hydroxypyrrolidin-1-yl)-1-oxopropan-2-yl)amino)-3-methyl-1-oxobutan-2-yl)oxy)ethyl)piperazin-1-yl)nicotinamide]		
< 0.05	> 71	Cc1ncsc1-c1ccc(CNC(=O)[C@@H]2C[C@@H](O)CN2C(=O)[C@H](C(C)C)N2Cc3ccccc3C2=O)c(OCCN2CCN(c3ccc(C(=O)N[C@H]4C(C)(C)[C@H](Oc5ccc(C#N)c(Cl)c5)C4(C)C)cn3)CC2)c1 [Example 732, N-((1r,3r)-3-(3-chloro-4-cyanophenoxy)-2,2,4,4-tetramethylcyclobutyl)-6-(4-(2-(2-(((2S,4R)-4-hydroxy-1-((S)-3-methyl-2-(1-oxoisoindolin-2-yl)butanoyl)pyrrolidine-2-carboxamido)methyl)-5-(4-methylthiazol-5-yl)phenoxy)ethyl)piper-azin-1-yl)nicotinamide]		
< 0.05	> 71	Cc1ncsc1-c1ccc(CNC(=O)[C@@H]2C[C@@H](O)CN2C(=O)[C@H](C(C)C)N2Cc3ccccc3C2=O)c(OCCN2CCN(c3ccc(C(=O)N[C@H]4C(C)(C)[C@H](Oc5ccc(C#N)c(C(F)(F)F)c5)C4(C)C)cn3)CC2)c1 [Example 733, N-((1r,3r)-3-(4-cyano-3-(trifluoromethyl)phenoxy)-2,2,4,4-tetramethylcyclobutyl)-6-(4-(2-(2-(((2S,4R)-4-hydroxy-1-((S)-3-methyl-2-(1-oxoisoindolin-2-yl)butanoyl)pyrrolidine-2-carboxamido)methyl)-5-(4-methylthiazol-5-yl)phenoxy)ethyl)piper-azin-1-yl)nicotinamide]		
< 0.05	51 to 70	CC(C)(C)[C@H](NC(=O)COCCN1CCN(c2ccc(C(=O)N[C@H]3C(C)(C)[C@H](Oc4ccc(C#N)c(Cl)c4)C3(C)C)cn2)CC1)C(=O)N1C[C@H](O)C[C@H]1C(=O)NCc1ccc(C#N)cc1 [Example 736, N-((1r,3r)-3-(3-chloro-4-cyanophenoxy)-2,2,4,4-tetramethylcyclobutyl)-6-(4-(2-(2-(((S)-1-((2S,4R)-2-((4-cyanobenzyl)carbamoyl)-4-hydroxypyrrolidin-1-yl)-3,3-dimethyl-1-oxobutan-2-yl)amino)-2-oxoethoxy)ethyl)pipera-zin-1-yl)nicotinamide]		
< 0.05	51 to 70	C[C@H](NC(=O)C1C[C@@H](O)CN1C(=O)[C@@H](NC(=O)COCCCCCc1ccc(C(=O)N[C@H]2C(C)(C)[C@H](Oc3ccc(C#N)c(Cl)c3)C2(C)C)cc1)C(C)(C)C)c1ccc(Cl)cc1 (stereo partly drawn) [Example 740, (2S,4R)-1-((S)-2-(2-((5-(4-(((1r,3r)-3-(3-chloro-4-cyanophenoxy)-2,2,4,4-tetramethylcyclobutyl)carbamoyl)phenyl)pentyl)oxy)acetamido)-3,3-dimethylbutanoyl)-N-((S)-1-(4-chlorophenyl)ethyl)-4-hydroxypyrroldiine-2-carboxamide]		
